From EP4563579A1, “MACROCYCLIC EGFR INHIBITOR, AND PREPARATION METHOD THEREFOR AND PHARMACEUTICAL USE THEREOF” (Abbisko Therapeutics Co., Ltd., priority 2022, dated 2024)

Columns and labels:
A431 WT = assay: Cell proliferation assay (CellTiter-Glo), A431 WT; format: cell-based; details: Homo sapiens, A-431; A431 WT cells, 72 hour incubation, CTG readout
How it was run: (§1)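 Cells seeded overnight, then exposed 72 h at 37 °C, 5% CO2 to nine 3.16-fold dilutions (top final 10 µM, 0.1% DMSO), triplicate wells. Viability read by CellTiter-Glo luminescence, with a T0 plate read at dosing; IC50 (nM) by non-linear sigmoidal regression.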

[1] = test system: Ba/F3 EGFR-L858R-T790M-C797S (LTC); assay: Cell proliferation assay (CellTiter-Glo), Ba/F3 LTC; format: cell-based; details: Mus musculus, BaF3; Ba/F3 EGFR-L858R-T790M-C797S cells, 72 hour incubation, CTG readout
How it was run: as §1

[2] = test system: Ba/F3 EGFR-DEL19-T790M-C797S (DTC); assay: Cell proliferation assay (CellTiter-Glo), Ba/F3 DTC; format: cell-based; details: Ba/F3 EGFR-DEL19-T790M-C797S cells, 72 hour incubation, CTG readout; read-out: IC50 BaF3 DTC
How it was run: as §1

[3] = test system: Ba/F3 EGFR-L858R-C797S (LC); assay: Cell proliferation assay (CellTiter-Glo), Ba/F3 LC; format: cell-based; details: Mus musculus, BaF3; Ba/F3 EGFR-L858R-C797S cells, 72 hour incubation, CTG readout
How it was run: as §1

[4] = test system: Ba/F3 EGFR-DEL19-C797S (DC); assay: Cell proliferation assay (CellTiter-Glo), Ba/F3 DC; format: cell-based; details: Mus musculus, BaF3; Ba/F3 EGFR-DEL19-C797S cells, 72 hour incubation, CTG readout
How it was run: as §1

[5] = Pharmacokinetic experiment in mice; format: in vivo; details: ICR mice; for AUC(0-t) / Cmax / half-life: male, mouse, single oral administration (PO), 10 mg/kg, plasma
Excerpt: The purpose of this trial is to study the pharmacokinetic behavior of some compounds of the present invention, and the administration method is: Single oral administration (PO) to ICR mice.
The compounds used in this trial are from the compounds in the specific examples of the present invention and the listed positive compounds.
ICR mice male N=9 original source: Shanghai Sippr-Bk Lab Animal Co., Ltd.
The compounds are weighed and dissolved in the corresponding solution (10% PG + 10% Solutol® + 80% pH3 citrate buffer). The mixture is then shaken well and sonicated to prepare a 1 mg/mL stock solution. Nine mice are orally administered at a dose of 10 mg/kg (or IV 2 mg/kg) after an overnight fast.
About 90 µL of blood is collected via the submandibular vein per time point, heparin sodium anticoagulant is added, the sample is placed on ice after collection, and plasma is centrifuged within 1 hour (centrifugation conditions: 8,000 rpm, 6 minutes, 2-8°C). The blood collection timepoints are 0, 0.25, 0.5, 1, 2, 4, 6, 8 and 24 h. The samples are stored in a -20°C refrigerator.
The plasma sample is 40 µL, 160 µL of ice-cold acetonitrile containing internal standard is added, vortexed for 3 minutes, and centrifuged at 11,000 rpm for 5 minutes. 100 µL of the supernatant is taken and added to 100 µL of water, 5 µL of the sample is taken and injected into LC/MS/MS for analysis.

IC50 (A431 WT)	IC50 [1]	IC50 [2]	IC50 [3]	IC50 [4]	AUC(0-t) [5]	Cmax [5]	half-life [5]	Oral F ([5]; PO 10 mg/kg (IV 2 mg/kg))	Compound
375 nM	1.4 nM	1.6 nM	2.7 nM	0.7 nM	2390 ng·h/mL	694 ng/mL	282 min	–	Cn1ncc2c1OCC1(CCCC1)Cn1nc(N3CC[C@H](CS(C)(=O)=O)C3)c3cnc(cc31)Nc1ccnc-2n1 [Example 34, (S)-1'methyl-3'-(3-((methylsulfonyl)methyl)pyrrolidin-1-yl)spiro(cyclopentane-1,6 '-8-oxa-3-aza-4(6,1)-pyrazolo[4,3-c]pyridina-2(2,4)-pyrimidina-1(4,5)-pyrazolacyclooctaphane)]
345 nM	1 nM	0.7 nM	2.2 nM	0.9 nM	5570 ng·h/mL	1500 ng/mL	156 min	81.5%	CCS(=O)(=O)C[C@H]1CCN(c2nn3c4cc(ncc24)Nc2ccnc(n2)-c2cnn(C)c2OCC2(CCCC2)C3)C1 [Example 35, (S)-3'-(3-((ethylsulfonyl)methyl)pyrrolidin-1-yl)-1'-met hylspiro(cyclopentane-1,6'-8-oxa-3-aza-4(6,1)-pyrazolo [4,3-c]pyridina-2(2,4)-pyrimidina-1(4,5)-pyrazolacyclooctaphane)]
554 nM	6.4 nM	3.2 nM	15.8 nM	6.1 nM	10100 ng·h/mL	2070 ng/mL	186 min	–	CCS(=O)(=O)C[C@H]1CCN(c2nn3c4cc(ncc24)Nc2ccnc(n2)-c2cnn(C)c2OCC2(CCCCC2)C3)C1 [Example 37, (S)-1'-methyl-3'-(3-((ethylsulfonyl)methyl)pyrrolidin-1-yl)spiro(cyclohexane-1,6'-8-oxa-3-aza-4(6,1)-pyrazolo [4,3-c]pyridina-2(2,4)-pyrimidina-1(4,5)-pyrazolacyclooctaphane)]
446 nM	0.8 nM	1.5 nM	2.1 nM	2.3 nM	6080 ng·h/mL	1560 ng/mL	180 min	–	CC(C)S(=O)(=O)C[C@H]1CCN(c2nn3c4cc(ncc24)Nc2ccnc(n2)-c2cnn(C)c2OCC2(CCCC2)C3)C1 [Example 39, (S)-3'-(3-((isopropylsulfonyl)methyl)pyrrolidin-1-yl)-1' -methylspiro(cyclopentane-1,6'-8-oxa-3-aza-4(6,1)-pyrazolo[4,3-c]pyridina-2(2,4)-pyrimidina-1(4,5)-pyrazolacyclooctaphane)]
564 nM	3.1 nM	5.2 nM	12.9 nM	15.9 nM	7110 ng·h/mL	1920 ng/mL	138 min	–	Cn1ncc2c1OCC1(CCCCC1)Cn1nc(N3CC[C@H](CS(=O)(=O)C4CC4)C3)c3cnc(cc31)Nc1ccnc-2n1 [Example 41, (S)-3'-(3-((cyclopropylsulfonyl)methyl)pyrrolidin-1-yl)-1'-methylspiro(cyclohexane-1,6'-8-oxa-3-aza-4(6,1)-pyrazolo[4,3-c]pyridina-2(2,4) -pyrimidina-1(4,5)-pyrazolacyclooctaphane)]
593 nM	1.2 nM	2.3 nM	1.9 nM	3.5 nM	4290 ng·h/mL	1060 ng/mL	180 min	–	CCCS(=O)(=O)C[C@H]1CCN(c2nn3c4cc(ncc24)Nc2ccnc(n2)-c2cnn(C)c2OCC2(CCCC2)C3)C1 [Example 42, (S)-3'-(3-((propylsulfonyl)methyl)pyrrolidin-1-yl)-1'-methylspiro(cyclopentane-1 ,6'-8-oxa-3-aza-4(6,1)-pyrazolo[4,3-c]pyridina-2(2,4)-pyrimidina-1(4,5)-pyrazolacyclooctaphane)]
424 nM	9 nM	10.1 nM	17.6 nM	15 nM	2690 ng·h/mL	596 ng/mL	168 min	–	COC(=O)N[C@@H]1CCN(c2nn3c4cc(ncc24)Nc2ccnc(n2)-c2cnn(C)c2OCC2(CCCC2)C3)C1 [Example 51, Methyl (R)-(1-(1'-methylspiro(cyclopentane-1,6'-8-oxa-3-aza-4 (6,1)-pyrazolo[4,3-c]pyridina-2(2,4)-pyrimidina-1(4,5)-pyrazolacyclooctaphane)-3'-yl)pyrrolidin-3-yl)carbamate]
654 nM	12 nM	8.7 nM	31.6 nM	12.1 nM	1730 ng·h/mL	412 ng/mL	78 min	–	Cn1ncc2c1OCC1(CCCC1)Cn1nc(N3CC[C@H](NC(=O)C4CC4)C3)c3cnc(cc31)Nc1ccnc-2n1 [Example 54, (S)-N-(1-(1'-methylspiro(cyclopentane-1,6'-8-oxa-3-aza-4(6,1)-pyrazolo[4,3-c]pyridina-2(2,4)-pyrimidina-1(4,5) -pyrazolacyclooctaphane)-3' -yl)pyrrolidin-3-yl)cyclopropanecarboxamide]
450 nM	8 nM	4.2 nM	11.5 nM	4.9 nM	204 ng·h/mL	32.7 ng/mL	288 min	–	C[C@H]1CCOc2c(cnn2C)-c2nccc(n2)Nc2cc3c(cn2)c(-c2ccc(CN4CCN(C)CC4)n2C)nn31 [Positive Compoun d, reference compound]
